Experimental data: US11377441B2, “Covalent inhibitors of KRAS” (Araxes Pharma LLC, priority 2017, dated 2022)

What follows are compounds tested against T1, KRAS G12C 1-169, his-tagged protein, GDP-loaded (Homo sapiens, UniProt P01116, G12C) (assay: Biochemical assay: covalent modification of KRAS G12C measured by mass spectrometry (RapidFire/TOF or Q-Exactive)). Conditions: covalent binding to (modification of) KRAS G12C after a ten minute incubation period.
T1 construct: KRAS G12C 1-169, his-tagged protein, GDP-loaded
Type: binding
Procedure, shortened: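 Intact-mass readout (TOF or Q-Exactive, charge-envelope deconvolution) gives percent covalent adduct from modified and unmodified species. Compound at 10, 30 or 100 μM was incubated at room temperature for 10 min to 24 h with 2 μM or 0.5 μM GDP-bound KRAS G12C 1-169 in Hepes/NaCl/MgCl2 buffer, then acid-quenched.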

Compound	Binding %
C=CC(=O)N1CCN(c2nc(OC[C@@H]3CCCN3C)nc3c(F)c(-c4c(C)ccc5cn[nH]c45)c(Cl)cc23)CC1CC#N (stereo partly drawn) [Compound 268, 2-(1-acryloyl-4-(6-chloro-8-fluoro-7-(6-methyl-1H-indazol-7-yl)-2-(((S)-1-methylpyrrolidin-2-yl)methoxy)quinazolin-4-yl)piperazin-2-yl)acetonitrile]	+++ (+++ indicates binding activity greater than 80%)
C=CC(=O)N1CCN(c2nc(N3CC(N(C)C)C3)nc3c(F)c(-c4c(C)ccc5cnn(C)c45)c(Cl)cc23)CC1CC#N (stereo not shown) [Compound 269, 2-(1-acryloyl-4-(6-chloro-7-(1,6-dimethyl-1H-indazol-7-yl)-2-(3-(dimethylamino)azetidin-1-yl)-8-fluoroquinazolin-4-yl)piperazin-2-yl)acetonitrile]	+++ (+++ indicates binding activity greater than 80%)
C=CC(=O)N1CCN(c2nc(N3CC(N(C)C)C3)nc3c(F)c(-c4c(C)ccc5[nH]nc(C)c45)c(Cl)cc23)CC1CC#N (stereo not shown) [Compound 270, 2-(1-acryloyl-4-(6-chloro-7-(3,5-dimethyl-1H-indazol-4-yl)-2-(3-(dimethylamino)azetidin-1-yl)-8-fluoroquinazolin-4-yl)piperazin-2-yl)acetonitrile]	+++ (+++ indicates binding activity greater than 80%)
C=CC(=O)N1CCN(c2nc(OC[C@@H]3CCCN3C)nc3c(F)c(-c4c(C)ccc5[nH]ncc45)c(Cl)cc23)CC1CC#N (stereo partly drawn) [Compound 271, 2-(1-acryloyl-4-(6-chloro-8-fluoro-7-(5-methyl-1H-indazol-4-yl)-2-(((S)-1-methylpyrrolidin-2-yl)methoxy)quinazolin-4-yl)piperazin-2-yl)acetonitrile]	+++ (+++ indicates binding activity greater than 80%)
